Patent EP4745134A1 (Jiangsu Yahong Meditech Co., Ltd., priority 2023, dated 2025)

How the values were obtained:
PRMT5-MTA = PRMT5-MTA (Homo sapiens, UniProt O14744); assay: Enzymatic inhibitory activity against PRMT5-MTA (AlphaScreen); type: biochemical; details: read-out: IC50
In short: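 PRMT5/[…] (1 nM) was preincubated for 30 min at room temperature with 1 µM […] and 2.5 µM SAM, then exposed to compound (10-point, 3-fold from 1000 nM) for 15 min at 23 °C. Histone H4 substrate (5 nM) was added and reacted for 45 min at 23 °C. Symmetric dimethyl-R3 H4 was detected by AlphaScreen and IC50 calculated.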

HCT116 MTAP KO cells = assay: Inhibitory activity against cell proliferation (CellTiter Glo, 6 days), HCT116 MTAP KO; type: cell-based; details: for IC50: Homo sapiens, HCT-116, 144 h, HCT116 MTAP KO cells, 6 days, CellTiter Glo, read-out: HCT116 MTAP KO IC50; for Selectivity HCT 116-WT/ HCT116 MTAP KO: ratio of IC50 HCT116-WT / HCT116 MTAP KO
In short: (§1)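 Cells were seeded at 250 per well in McCoy's 5A with 10% FBS and left overnight at 37°C, 5% CO2. Compounds were added as 8-point, 4-fold dilutions from 10000 nM, with DMSO-only controls, for 6 days. IC50 values came from CellTiter Glo luminescence.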

HCT116-WT cells = assay: Inhibitory activity against cell proliferation (CellTiter Glo, 6 days), HCT116-WT; type: cell-based; details: 144 h, HCT116-WT cells, 6 days, CellTiter Glo; read-out: HCT116-WT IC50
In short: as §1

Sequence of PRMT5-MTA (O14744 whole entry): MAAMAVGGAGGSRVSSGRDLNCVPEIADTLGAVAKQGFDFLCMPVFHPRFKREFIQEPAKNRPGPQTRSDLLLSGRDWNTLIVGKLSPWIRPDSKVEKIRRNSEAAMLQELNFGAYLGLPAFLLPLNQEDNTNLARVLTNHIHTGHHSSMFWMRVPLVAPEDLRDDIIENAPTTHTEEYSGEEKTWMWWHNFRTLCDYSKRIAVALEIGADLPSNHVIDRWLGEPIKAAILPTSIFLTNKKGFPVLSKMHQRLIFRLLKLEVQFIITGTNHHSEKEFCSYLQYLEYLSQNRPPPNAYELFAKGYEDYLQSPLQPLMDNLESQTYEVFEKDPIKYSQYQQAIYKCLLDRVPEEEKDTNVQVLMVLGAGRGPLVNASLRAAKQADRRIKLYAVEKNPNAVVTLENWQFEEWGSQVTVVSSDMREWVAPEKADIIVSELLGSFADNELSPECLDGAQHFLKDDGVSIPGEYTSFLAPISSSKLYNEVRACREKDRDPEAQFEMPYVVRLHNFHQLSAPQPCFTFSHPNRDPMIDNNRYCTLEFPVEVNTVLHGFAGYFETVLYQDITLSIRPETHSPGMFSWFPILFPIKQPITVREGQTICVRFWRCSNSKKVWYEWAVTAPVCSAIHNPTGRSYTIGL
Sequence of PRMT5-MTA (Q9BQA1 whole entry partner): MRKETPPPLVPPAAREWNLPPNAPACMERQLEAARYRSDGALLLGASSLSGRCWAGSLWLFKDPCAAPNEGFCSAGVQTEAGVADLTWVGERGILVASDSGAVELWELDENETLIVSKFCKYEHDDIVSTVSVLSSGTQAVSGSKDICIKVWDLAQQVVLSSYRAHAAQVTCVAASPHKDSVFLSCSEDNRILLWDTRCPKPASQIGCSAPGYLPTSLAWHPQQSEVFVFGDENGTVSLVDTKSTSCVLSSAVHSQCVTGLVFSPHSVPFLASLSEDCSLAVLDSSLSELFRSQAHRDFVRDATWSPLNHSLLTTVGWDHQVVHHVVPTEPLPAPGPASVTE

| SMILES | IC50 (PRMT5-MTA) [nM] | IC50 (HCT116 MTAP KO cells) [nM] | Selectivity HCT 116-WT/ HCT116 MTAP KO (HCT116 MTAP KO cells) | IC50 (HCT116-WT cells) [nM] |
| --- | --- | --- | --- | --- |
| Cc1cc2cc(C(=O)N(Cc3ccc(C(F)(F)F)cn3)N(C)c3ncccc3C(F)F)ccc2nc1N [Example 117, 2-amino-N'-(3-(difluoromethyl)pyridin-2-yl)-N',3-dimethyl-N-((5-(trifluoromethyl)pyridin-2-yl)methyl)quinoline-6-carbohydrazide] | 1.8 | 89 | 14.00 | 1250 |
| Cc1cc2cc(C(=O)N(Cc3ccc(C(F)(F)F)cn3)N(C)c3ncc4cc[nH]c4n3)ccc2nc1N [Example 119, 2-amino-N',3-dimethyl-N'-(7H-pyrrolo[2,3-d]pyrimidin-2-yl)-N-((5-(trifluoromethyl)pyridin-2-yl)methyl)quinoline-6-carbohydrazide] | 2.3 | 90 | 20.13 | 1810 |
| Cc1cc2cc(C(=O)N(Cc3cc4cccc(F)c4cn3)N(C)c3ncccn3)ccc2nc1N [Example 123, 2-amino-N-((8-fluoroisoquinolin-3-yl)methyl)-N',3-dimethyl-N'-(pyrimidin-2-yl)quinoline-6-carbohydrazide] | 2.9 | 88 | 21.61 | 1900 |
| Cc1cc2cc(C(=O)N(Cc3ccc(C(F)(F)F)nn3)N(C)c3ncccn3)ccc2nc1N [Example 124, 2-amino-N',3-dimethyl-N'-(pyrimidin-2-yl)-N-((6-(trifluoromethyl)pyridazin-3-yl)methyl)quinoline-6-carbohydrazide] | 5.4 | 220 | 29.33 | 6450 |
| Cc1cc2cc(C(=O)N(Cc3ccc(C(F)(F)F)cn3)N(C)c3c(F)ccc4nccnc34)ccc2nc1N [Example 125, 2-amino-N'-(6-fluoroquinoxalin-5-yl)-N',3-dimethyl-N-((5-(trifluoromethyl)pyridin-2-yl)methyl)quinoline-6-carbohydrazide] | 1.7 | 84 | 27.54 | 2310 |
| Cc1cc2cc(C(=O)N(Cc3ccc(C(F)(F)F)cn3)N(C)c3ncc4ccn(C)c4n3)ccc2nc1N [Example 126, 2-amino-N',3-dimethyl-N'-(7-methyl-7H-pyrrolo[2,3-d]pyrimidin-2-yl)-N-((5-(trifluoromethyl)pyridin-2-yl)methyl)quinoline-6-carbohydrazide] | 1.3 | 90 | 16.41 | 1480 |
| C=Cc1cccnc1N(C)N(Cc1ccc(C(F)(F)F)cn1)C(=O)c1ccc2nc(N)c(C)cc2c1 [Example 133, 2-amino-N',3-dimethyl-N-((5-(trifluoromethyl)pyridin-2-yl)methyl)-N'-(3-vinylpyridin-2-yl)quinoline-6-carbohydrazide] | 3.6 | 312 | 10.89 | 3400 |
| C=C(C)c1cccnc1N(C)N(Cc1ccc(C(F)(F)F)cn1)C(=O)c1ccc2nc(N)c(C)cc2c1 [Example 135, 2-amino-N',3-dimethyl-N'-(3-(prop-1-en-2-yl)pyridin-2-yl)-N-((5-(trifluoromethyl)pyridin-2-yl)methyl)quinoline-6-carbohy drazide] | 3.2 | 163 | 12.75 | 2080 |
| COc1nc(C)ccc1-c1ccc(CN(C(=O)c2ccc3nc(N)c(C)cc3c2)N(C)c2ncccn2)nc1 [Example 137, 2-amino-N-((2'-methoxy-6'-methyl-[3,3'-bipyridine]-6-yl)methyl)-N',3-dimethyl-N'-(pyrimidin-2-yl)quinoline-6-carbohydrazide] | 1.3 | 110 | 18.07 | 1990 |
| Cc1cc2cc(C(=O)N(Cc3ccc(-c4ccc(C#N)nc4)cn3)N(C)c3ncccn3)ccc2nc1N [Example 139, 2-amino-N-((6'-cyano-[3,3'-bipyridine]-6-yl)methyl)-N',3-dimethyl-N'-(pyrimidin-2-yl)quinoline-6-carbohydrazide] | 3 | 22 | 12.77 | 281 |
| Cc1cc2cc(C(=O)N(Cc3ccc(-c4ccc(N5CCN(C)CC5)nc4)cn3)N(C)c3ncccn3)ccc2nc1N [Example 140, 2-amino-N',3-dimethyl-N-((6'-(4-methylpiperazin-1-yl)-[3,3'-bipyridine]-6-yl)methyl)-N'-(pyrimidin-2-yl)quinoline-6-carbohydrazide] | 1.6 | 46 | 44.67 | 2060 |
| Cc1cc2cc(C(=O)N(Cc3ccc(-c4ccccn4)cn3)N(C)c3ncccn3)ccc2nc1N [Example 141, N-([2,3'-bipyridine]-6'-ylmethyl)-2-amino -N',3-dimethyl-N'-(pyrimidin-2-yl)quino line-6-carbohydrazide] | 2.3 | 76 | 26.76 | 2030 |
| Cc1cc2cc(C(=O)N(Cc3ccc(-c4cc[nH]n4)cn3)N(C)c3ncccn3)ccc2nc1N [Example 142, N-((5-(1H-pyrazol-3-yl)pyridin-2-yl)methyl)-2-amino-N',3-dimethyl-N'-(pyrimidin-2-yl)quinoline-6-carbohydrazide] | 4.1 | 201 | 19.43 | 3910 |
| Cc1cc2cc(C(=O)N(Cc3ccc(-c4ccc(N)nc4)cn3)N(C)c3ncccn3)ccc2nc1N [Example 144, 2-amino-N-((6'-amino-[3,3'-bipyridine]-6-yl)methyl)-N',3-dimethyl-N'-(pyrimidin-2-yl)quinoline-6-carbohydrazide] | 1.5 | 26 | 23.69 | 616 |
| Cc1cc2cc(C(=O)N(Cc3ccc(-c4cnc(N5CCN(C)CC5)nc4)cn3)N(C)c3ncccn3)ccc2nc1N [Example 147, 2-amino-N',3-dimethyl-N-((5-(2-(4-methylpiperazin-1-yl)pyrimidin-5-yl)pyridin-2-yl)methyl)-N'-(pyrimidin-2-yl)quinoline-6-carbohydrazide] | 2.2 | 46 | 29.93 | 1380 |
| Cc1cc2cc(C(=O)N(Cc3ccc(-c4ccn(C)c4)cn3)N(C)c3ncccn3)ccc2nc1N [Example 148, 2-amino-N',3-dimethyl-N-((5-(1-methyl-1H-pyrrol-3-yl)pyridin-2-yl)methyl)-N'-(pyrimidin-2-yl)quinoline-6-carbohydrazide] | 1 | 179 | 17.25 | 3090 |
| Cc1cc2cc(C(=O)N(Cc3ccc(-c4cnn(C5CCC5)c4)cn3)N(C)c3ncccn3)ccc2nc1N [Example 149, 2-amino-N-((5-(1-cyclobutyl-1H-pyrazol-4-yl)pyridin-2-yl)methyl)-N',3-dimethyl-N'-(pyrimidin-2-yl)quinoline-6-carbohydr azide] | 2.9 | 99 | 16.02 | 1590 |
| Cc1ncc(-c2ccc(CN(C(=O)c3ccc4nc(N)c(C)cc4c3)N(C)c3ncccn3)nc2)s1 [Example 151, 2-amino-N',3-dimethyl-N-((5-(2-methylthiazol-5-yl)pyridin-2-yl)methyl)-N'-(pyrimidin-2-yl)quinoline-6-carbohydrazide] | 6.4 | 19 | 31.63 | 601 |
| Cc1cc2cc(C(=O)N(Cc3ccc(-c4cnn(C)c4)cn3)N(c3ncccn3)C3CC3)ccc2nc1N [Example 152, 2-amino-N'-cyclopropyl-3-methyl-N-((5-(1-methyl-1H-pyrazol-4-yl)pyridin-2-yl)methyl)-N'-(pyrimidin-2-yl)quinoline-6-c arbohydrazide] | 4.4 | 35 | 28.51 | 998 |
| Cc1cc2cc(C(=O)N(Cc3ccc(C4CC4)cn3)N(C)c3ncccn3)ccc2nc1N [Example 153, 2-amino-N-((5-cyclopropylpyridin-2-yl)methyl)-N',3-dimethyl-N'-(pyrimidin-2-yl)quinoline-6-carbohydrazide] | 1.6 | 20 | 52.80 | 1060 |
| Cc1cc2cc(C(=O)N(Cc3ccc(-c4ccc(C(F)(F)F)nc4)cn3)N(C)c3ncccn3)ccc2nc1N [Example 154, 2-amino-N',3-dimethyl-N'-(pyrimidin-2-y 1)-N-((6'-(trifluoromethyl)-[3,3'-bipyridine]-6-yl)methyl)quinoline-6-carbohydrazide] | 1.6 | 60 | 13.88 | 833 |
| Cc1cc2cc(C(=O)N(Cc3ccc(-c4ccc(=O)n(C)c4)cn3)N(C)c3ncccn3)ccc2nc1N [Example 155, 2-amino-N',3-dimethyl-N-((1'-methyl-6'-oxo-1',6'-dihydro-[3,3'-bipyridine]-6-yl)methyl)-N'-(pyrimidin-2-yl)quinoline-6-car bohydrazide] | 2.3 | 42 | 30.00 | 1260 |
